Source: patent US10463630B2, “Interaction of methylated LSD1 and CHD1, a compound inhibiting this interaction for use in therapy, and a screening method for such a compound” (Albert-Ludwigs-Universität Freiburg, priority 2015, dated 2019)
Changes are numbered by the printed parent chain.

How the values were obtained:
LAPC4 cells [1] = assay: Chromosome conformation capture (3C), TMPRSS2 enhancer-breakpoint loop; type: cell-based; details: DHT, Bix-01294, FIG. 4b
Method: LNCaP cells were grown for 72 hours in medium supplemented with 10% double-stripped FCS, treated for 210 min with or without DHT 10^−7 M, washed in PBS, and trypsinized 2 min at 37° C. After washing, cells were resuspended in PBS, filtered through a 40 μm cell strainer and collected in an ice cold 2% formaldehyde solution. After 15 min incubation at 4° C., fixation was stopped by adding glycine and cells were pelleted. After washing, cells were resuspended in nuclear isolation buffer (10 mM HEPES-KOH pH 7.9, 1.5 mM MgCl2, 10 mM KCl, 0.5 mM DTT, Complete protease inhibitor cocktail, Roche), allowed to swell on ice for 10 min, vortexed for 10 seconds at low speed, and pelleted. Isolated nuclei were resuspended in NEB restriction buffer, SDS was added to a final concentration of 0.5%, and nuclei were incubated for 1 h at 37° C. while shaking. Upon addition of Triton X-100, samples were incubated for 1 h at 37° C. to sequester SDS. 50 μl of the sample were taken and used as an undigested control. 600 U restriction enzyme were added and samples were incubated overnight at 37° C. while shaking. 40 μl 20% SDS solution was added and incubated for 20 min at 65° C. to inactivate the restriction enzyme. […] Purified DNA samples were analyzed on a Roche LightCycler®480 by TaqMan-based qPCR. […] To verify Enhancer-Breakpoint PCR product, samples were analyzed on a 2% agarose gel and sequenced. […]

LNCaP cells [2] = tested on: LNCaP cells
Method: LNCaP cells were grown for 72 hours in medium supplemented with 10% double-stripped FCS, treated for 210 min with or without DHT 10^−7 M, washed in PBS, and trypsinized 2 min at 37° C. After washing, cells were resuspended in PBS, filtered through a 40 μm cell strainer and collected in an ice cold 2% formaldehyde solution. After 15 min incubation at 4° C., fixation was stopped by adding glycine and cells were pelleted. After washing, cells were resuspended in nuclear isolation buffer (10 mM HEPES-KOH pH 7.9, 1.5 mM MgCl2, 10 mM KCl, 0.5 mM DTT, Complete protease inhibitor cocktail, Roche), allowed to swell on ice for 10 min, vortexed for 10 seconds at low speed, and pelleted. Isolated nuclei were resuspended in NEB restriction buffer, SDS was added to a final concentration of 0.5%, and nuclei were incubated for 1 h at 37° C. while shaking. Upon addition of Triton X-100, samples were incubated for 1 h at 37° C. to sequester SDS. 50 μl of the sample were taken and used as an undigested control. 600 U restriction enzyme were added and samples were incubated overnight at 37° C. while shaking. 40 μl 20% SDS solution was added and incubated for 20 min at 65° C. to inactivate the restriction enzyme. […] Purified DNA samples were analyzed on a Roche LightCycler®480 by TaqMan-based qPCR. […] To verify Enhancer-Breakpoint PCR product, samples were analyzed on a 2% agarose gel and sequenced.

LAPC4 cells [3] = assay: Expression of androgen-regulated genes (quantitative RT-PCR); type: cell-based; details: 1×10^−5 M Bix-01294, FIG. 3k
LNCaP cells [4] = assay: as above; type: cell-based, human; details: 1×10^−5 M Bix-01294, FIG. 3j
LNCaP cells [5] = assay: Chromatin immunoprecipitation (ChIP) at AREs of TMPRSS2 and KLK3 enhancers; type: cell-based, human; details: for chromatin occupancy of G9A: presence or absence of DHT and Bix-01294
Method: ChIP experiments were performed essentially as previously described^10. LNCaP and LAPC4 cells were cultured for 210 min in the absence or presence of 1×10^-7 M DHT as indicated. Three days before harvesting, cells were transfected with siRNA against LSD110, G9A20, or CHD121 that were previously described and validated using Dharmafect2 (Thermo Scientific) following the manufacturer's instructions. Immunoprecipitation was performed with specific antibodies (α-AR (N-20), #sc-816, lot A0207, Santa Cruz), α-LSD1 (#20752, Schuele Laboratory), α-LSD1 K114me2 (#4871, Schuele Laboratory), α-CHD1 (#A301-218A, lot A301-218A-1, Bethyl Laboratories), α-G9A (#ab40542, lot GR170862-1, Abcam) on protein A-Sepharose 4B (GE-Healthcare). For PCR, 2 μl out of 70 μl DNA extract were used. Primer sequences were as follows: TMPRSS2 enhancer (−13782/−13866) 5′-[…]-3′ (SEQ ID NO:1) and 5′-[…]-3′ (SEQ ID NO:2); KLK3 enhancer (−3980/−4048) 5′-[…]-3′ (SEQ ID NO:3) and 5′-[…]-3′ (SEQ ID NO:4); control (chr6:151953789-151953927) 5′-[…]-3′ (SEQ ID NO:5) and 5′-[…]-3′ (SEQ ID NO:6).
LNCaP cells were cultured and transfected as described^10.

LNCaP cells [6] = details: DHT 10^−6 M, 3 days, FIG. 4f
Method: Expression analysis of TMPRSS2-ERG (FIG. 4f) was done essentially as previously described. […] HPRT was used for normalization.
(§1) LNCaP cells were cultured and transfected as described^10. […] For FISH and analysis of TMPRSS2-ERG expression (FIG. 4f,g) cells were transfected with siRNAs height and five days before harvesting; DHT 10^−6 M was added to the cells as indicated 3 days before harvesting. […] Cells were cultivated for 3 days (FIG. 4f, g) with DHT 10^−6 M as indicated.

LNCaP cells [7] = details: DHT 10^−6 M, 3 days, FIG. 4g
Method: as §1
To determine TMPRSS2-ERG fusion status in LNCaP cells, a FISH break-apart assay was performed as described previously^41. The FISH probe consists of two BAC clones spanning the centromeric and telomeric region of the ERG locus on chromosome 21q22.2: RP11-24A11 labelled with biotin-14-dCTP (red) and RP11-137J13 labelled with digoxigenin-dUTP (green). After harvesting, LNCaP cells were incubated with 0.075 M KCl at 37° C. for 15 min and fixed on slides (acetic acid/methanol 1:3). Slides were pre-treated with 2×SSC at 37° C. for 60 min, digested with 1:25 Digest-A11 III at 37° C. for 6 min and dehydrated in an ascending ethanol series. The probes were denatured at 73° C. for 5 min and subsequently co-denaturized with the cells (85° C., 4 min). Hybridization of the two probes was performed at 37° C. overnight. […] Finally slides were counterstained with DAPI and mounted and independently evaluated by two persons.

CHD1 D425A = biological target: T1, CHD1 D425A (Homo sapiens, UniProt O14646, D425A); assay: ITC with CHD1 D425A mutant; type: binding; details: data not shown
T1 construct: titration of LSD1aa104-127 K114me0, 1, 2, and 3 peptides to CHD1aa270-443; made in house; E. coli likely, inferred from the pET15b vector of the wild-type fragment
T1 sequence (O14646 270-443 D425A): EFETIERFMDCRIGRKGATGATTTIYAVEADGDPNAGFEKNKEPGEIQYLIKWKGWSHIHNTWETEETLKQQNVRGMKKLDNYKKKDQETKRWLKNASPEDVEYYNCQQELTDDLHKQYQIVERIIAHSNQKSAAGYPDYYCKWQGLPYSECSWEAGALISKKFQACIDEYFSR
Description: Amino acid residues 110-116 of the LSD1 peptide were modelled according to the electron density (FIG. 2c). […] This interaction involves residues Y295, W322, W325 from chromodomain 1 and D408 and D425 from chromodomain 2 (FIG. 2b and FIG. 5a). The methylammonium group of LSD1 K114 and side chains of W322 and W325 of CHD1 form cation-π interactions. […] It was therefore hypothesized that the R113-D425 interaction may be a discriminating feature of CHD1 binding either LSD1 K114me2 or H3K4me3 peptide and that the corresponding surface could be exploited for the design of inhibitors specifically interfering with LSD1 K114me2 but not H3K4me3 interaction (see FIG. 5c). […] Next, it was tested whether in vivo the interaction of CHD1 with LSD1 depends on LSD1 methylation. In the presence of G9A, endogenous CHD1 only coimmunoprecipitated with methylated Flag-LSD1, but not with Flag-LSD1 K114A (FIG. 2d). To investigate whether CHD1 and LSD1 K114me2 are present in the same protein complex, LNCaP cell extracts were subjected to sucrose gradient centrifugation. […] Furthermore, endogenously expressed CHD1 and LSD1 K114me2 coimmunoprecipitated with G9A from LNCaP cell extracts (FIG. 2f). Together, these observations identify CHD1 as a LSD1 K114me2 reader.
ITC experiments were performed at 25° C. with a MicroCal VP-ITC microcalorimeter (GE Healthcare). […]

CHD1aa270-443 = biological target: T2, CHD1aa270-443 (Homo sapiens, UniProt O14646); assay: Isothermal titration calorimetry (ITC) of peptides titrated to CHD1; type: binding; details: FIG. 2a
T2 construct: titration of LSD1aa104-127 K114me0, 1, 2, and 3 peptides to CHD1aa270-443; made in house; E. coli likely, inferred from the pET15b vector
T2 sequence (O14646 270-443): T1 sequence (O14646 270-443 D425A) with A156D
Method: ITC experiments were performed at 25° C. with a MicroCal VP-ITC microcalorimeter (GE Healthcare). Experiments were performed by injecting 12 μl of peptide (1.5 mM) into the sample cell containing 100 μM CHD1 in 20 mM BTP pH 8, 75 mM NaCl. A total of 24 injections were performed with a spacing of 240 s and a reference power of […]. Automated baseline assignment and peak integration were performed with NITPIC version 1.0.1.^26. Isotherms were plotted, with a single-site binding model, using SEDPHAT version 10.58d^26. Isotherms were subsequently validated by one dimensional error surface projections in SEDFIT^27.

[8] = biological target: T3, CHD1 double chromodomain (GST-CHD1 Chromo 1/2) (Homo sapiens, UniProt O14646); assay: Protein profiling on protein-domain microarrays with LSD1 peptides; type: binding; details: GST-fusion proteins
T3 sequence (O14646 268-443 limits assumed): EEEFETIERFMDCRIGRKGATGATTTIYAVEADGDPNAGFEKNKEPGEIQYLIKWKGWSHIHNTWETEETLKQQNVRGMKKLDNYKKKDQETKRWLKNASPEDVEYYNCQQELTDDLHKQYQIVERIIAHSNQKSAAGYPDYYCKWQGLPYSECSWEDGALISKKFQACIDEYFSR
Method: To identify potential LSD1 K114me2 methyl-lysine reader proteins, protein profiling was performed on protein-domain microarrays using un- and dimethylated LSD1 peptides LSD1aa104-127 and LSD1aa104-127 K114me2, respectively (see also ref.^14). In this profiling assay, several GST-fusion proteins including CHD1 fused to GST were used. Other GST-fusions that were used were e.g. PhD-domain proteins (BPTF, ING2 or PHF2), BROMO-domain proteins (GCN5, TAF1-D1 or TAF1-D2), or BRCT-proteins (BRCA1, 53BP1 or Crb2).

With `COc1cc2nc(N3CCCN(C)CC3)nc(NC3CCN(Cc4ccccc4)CC3)c2cc1OC` [Bix-01294] the “androgen-dependent TMPRSS2 enhancer-breakpoint loop formation” value (LAPC4 cells [1]) was “blocked this loop formation”, the “androgen-dependent TMPRSS2 enhancer-breakpoint loop formation” value (LNCaP cells [2]; DHT, Bix-01294, FIG. 4a) was “blocked this loop formation” and the “DHT-induced expression of TMPRSS2, KLK3, PRDM4, ELK4, GREB1, IGF1R, FKBP5, or EGFR” value (LAPC4 cells [3]) was “greatly reduced”. The “DHT-induced expression of TMPRSS2, KLK3, PRDM4, ELK4, GREB1, IGF1R, FKBP5, or EGFR” value (LNCaP cells [4]) was “greatly reduced”, the “chromatin occupancy of G9A” value (LNCaP cells [5]; ChIP) was “not altered” and the “androgen-induced methylation of LSD1 and androgen-induced recruitment of CHD1 and AR” value (LNCaP cells [5]; DHT, 1×10^−5 M Bix-01294, ChIP, FIG. 3g) was “blocked”.
For `C[C@]12CCC(=O)C[C@@H]1CC[C@@H]1[C@@H]2CC[C@]2(C)[C@@H](O)CC[C@@H]12` [DHT, dihydrotestosterone], the TMPRSS2-ERG transcript (LNCaP cells [6]) was “led to the production of TMPRSS2-ERG transcript”, the TMPRSS2 enhancer-breakpoint interactions (LNCaP cells [2]; DHT 10^−7 M, 210 min, 3C) was “enhancer-breakpoint interactions upon treatment with DHT was observed” and the “ERG rearrangements by FISH” value (LNCaP cells [7]) was “induced ERG rearrangements”. For the same compound, the “chromatin occupancy of G9A” value (LNCaP cells [5]; ChIP) was “not altered” and the “LSD1 K114me2 levels and CHD1 and AR occupancy of the TMPRSS2 and KLK3 genes” value (LNCaP cells [5]; DHT 10^−7 M, 210 min, ChIP) was “elevated LSD1 K114me2 levels accompanied by increased CHD1 and AR occupancy”.
“H3K4me3 peptide: histone 3 peptide modified at lysine residue 4 by three methyl-groups” was tested, and the “effect of D425A mutation in CHD1 on peptide binding” value (CHD1 D425A) was “only mildly affected”.
With “Unmethylated H3 peptide: unmethylated histone H3 peptide” the “binding to GST-CHD1 Chromo 1/2” value (CHD1aa270-443) was “did not bind”.
In the case of “Unmethylated LSD1: unmethylated LSD1 peptide LSD1aa104-127 (TPEGRRTSRRKRAKVEYREMDESL)”, the “binding to GST-CHD1 Chromo 1/2” value (CHD1aa270-443) was “did not bind” and the “interaction with CHD1 double chromodomain on microarray” value [8] was “not”.
